Measured values as given in ChEMBL document CHEMBL1156458, “chi-Conotoxin and tricyclic antidepressant interactions at the norepinephrine transporter define a new transporter model” (J Biol Chem, 2007).

Biological target: Sodium-dependent dopamine transporter (Homo sapiens, UniProt Q01959, F472L)
Experiment: Inhibition of [3H]dopamine uptake at human DAT F472L mutant expressed in african green monkey COS1 cells after 48 hrs
Type: cell-based, COS-1

Sodium-dependent dopamine transporter, sequence (Q01959 whole entry F472L): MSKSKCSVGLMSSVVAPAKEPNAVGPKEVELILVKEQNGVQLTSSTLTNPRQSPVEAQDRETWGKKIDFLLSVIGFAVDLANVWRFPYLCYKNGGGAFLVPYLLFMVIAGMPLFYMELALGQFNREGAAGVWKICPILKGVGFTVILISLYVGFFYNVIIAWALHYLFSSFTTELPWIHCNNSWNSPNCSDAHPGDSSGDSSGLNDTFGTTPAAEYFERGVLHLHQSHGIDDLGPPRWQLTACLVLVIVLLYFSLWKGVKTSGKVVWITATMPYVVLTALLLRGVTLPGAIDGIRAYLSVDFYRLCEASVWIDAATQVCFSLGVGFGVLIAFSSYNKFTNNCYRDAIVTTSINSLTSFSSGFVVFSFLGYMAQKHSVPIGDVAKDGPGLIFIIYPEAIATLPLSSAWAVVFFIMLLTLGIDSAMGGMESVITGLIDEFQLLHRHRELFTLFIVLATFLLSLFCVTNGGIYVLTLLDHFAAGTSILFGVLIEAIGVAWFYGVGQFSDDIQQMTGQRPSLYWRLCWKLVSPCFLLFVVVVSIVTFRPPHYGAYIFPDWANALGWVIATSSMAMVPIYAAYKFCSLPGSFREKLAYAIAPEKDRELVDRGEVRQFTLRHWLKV

## CC(C)C[C@@H]1NC(=O)[C@H](CCCCN)NC(=O)[C@H](Cc2ccc(O)cc2)NC(=O)CNC(=O)[C@@H]2CSSC[C@H](NC1=O)C(=O)N[C@@H](Cc1cnc[nH]1)C(=O)N1C[C@H](O)C[C@H]1C(=O)N[C@H](C(=O)O)CSSC[C@H](NC(=O)[C@@H](NC(=O)CNC(=O)[C@@H](N)CC(N)=O)C(C)C)C(=O)N2
  IC50: 200 µM
